For orientation: IC50 means the concentration at which inhibition is half-maximal. A high value points to weaker potency. In general, EC50 refers to the midpoint of the concentration-response curve. A higher EC50 goes with a need for much substance.

Structures are written as SMILES.

For one experiment, the target named is T1, MAPKAPK5 (Homo sapiens, UniProt Q8IW41).
T1 sequence (Q8IW41 1-471 isoform Q8IW41-2): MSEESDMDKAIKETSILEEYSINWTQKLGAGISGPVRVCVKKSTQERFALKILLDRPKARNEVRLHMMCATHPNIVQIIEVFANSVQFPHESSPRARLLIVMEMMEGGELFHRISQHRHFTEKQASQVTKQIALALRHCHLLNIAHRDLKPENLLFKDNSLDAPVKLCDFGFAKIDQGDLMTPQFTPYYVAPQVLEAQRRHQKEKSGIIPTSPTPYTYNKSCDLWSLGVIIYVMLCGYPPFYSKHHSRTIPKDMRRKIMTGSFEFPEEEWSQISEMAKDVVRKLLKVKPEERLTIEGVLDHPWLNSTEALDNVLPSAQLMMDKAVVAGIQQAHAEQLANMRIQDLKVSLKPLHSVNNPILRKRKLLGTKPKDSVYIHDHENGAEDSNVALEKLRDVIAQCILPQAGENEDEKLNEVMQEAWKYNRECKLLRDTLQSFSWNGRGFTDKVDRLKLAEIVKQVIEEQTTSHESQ
Put plainly: MAPKAP-K5 assay (FlashPlate kinase assay).

In experiment [1] the test system is TNFα release by human PBMCs. The experiment can be described thus: Cytokine release by LPS stimulated human PBMCs (TNFα ELISA). Format: cell-based. The conditions noted are these: PBMC, 24 h, Table 5, LPS 1 μg/mL. How it is done: For the assay PBMCs are seeded at 2.5E6 cells/mL in 160 μL in 96-well plates (Nunc). Serial dilution of the test compounds are made first in DMSO (Sigma) and then diluted 50-fold in M199 medium (Gibco) containing 1% heat-inactivated FBS. Compounds are further 1/10 diluted in the assay plates to obtain final DMSO concentration of 0.2%. Cells are preincubated with the compounds for 1 hr at 37° C., 5% CO2. Then, cells are stimulated with LPS (Escherichia coli serotype 026:B6, Cat. No. L2654, Sigma) that is added in a volume of 20 μL to a final concentration of 1 μg/mL and cells are further cultured for 24 hr. The plates are centrifuged and the supernatant is collected and stored at −80° C. until analysis of appropriate dilutions in ELISAs.
After 4 hr incubation at RT, blocking buffer is removed and plates are washed once with PBST (1×PBS with 0.05% Tween-20 (Sigma)). Then, 40 μL of sample is transferred to the ELISA plates and plates are incubated at 4° C. […] After 2 h of incubation at RT, plates are washed as described above and 35 μL/well of a 1/2000 dilution of streptavidin-HRP conjugate (Cat. No. SNN2004, Biosource) in buffer D is added. After 45 min, plates are washed as described above and incubated for 5 min with 50 μL/well BM Chemiluminescence ELISA Substrate POD (Roche). Readout is performed on the Luminoscan Ascent Luminometer (Labsystems) with an integration time of 100 msec delivering raw data (RLU: relative luminescence units). The following controls are included in the experiments, a maximal signal control, in which the cells are activated by LPS but only the 0.2% DMSO vehicle (and thus no compound) is added. […] A minimal signal control is also included in these experiments. Here, cells are not triggered. […] Where compounds are tested at 8 concentrations (1/3 serial dilution), EC50-values can be calculated by curve fitting of the means of the PIN data achieved for a compound at each test concentration.
On the technique in general: An ELISA detects its analyte on a solid surface through an enzyme-linked reagent.

For experiment [2], the system named is MMP1 expression by activated primary synovial fibroblasts. Put plainly: 'MMP assay': MMP1 expression by complex trigger activated synovial fibroblasts (MMP1 ELISA). The conditions noted are these: Homo sapiens, Fibroblast; Table 3; RASFs, complex trigger, 48 hrs, MMP1 ELISA. Format: cell-based.

`c1nc2c(Nc3ccc(N4CCN(C5CC5)CC4)cc3)ncc(-c3cn[nH]c3)n2n1` [Compound 59, [4-(4-Cyclopropylpiperazin-1-yl)phenyl]-[5-(1H-pyrazol-4-yl)-[1,2,4]triazolo[1,5-a]pyrazin-8-yl]amine] gave an IC50 against MAPKAPK5 of over 1000 nM. For the same compound, the 50% effective concentration (EC50) in experiment [1] and in experiment [2] was over 1000 nM each time.

Compound `C[C@@H]1CN(c2ccc(Nc3ncc(-c4csc(C(N)=O)c4)n4ncnc34)cc2)C[C@H](C)O1` [Compound 24] displayed an IC50 at MAPKAPK5 of 501 to 1000 nM. Moreover, the EC50 is over 1000 nM in experiment [1] and 101 to 500 nM in experiment [2].

As for `CC(C)N1CCN(c2ccc(Nc3ncc(-c4csc(C(N)=O)n4)n4ncnc34)cc2)CC1` [Compound 62, 4-{8-[4-(4-Isopropylpiperazin-1-yl)phenylamino]-[1,2,4]triazolo[1,5-a]pyrazin-5-yl}thiazole-2-carboxylic acid amide], on MAPKAPK5, the IC50 lay in the range of 501 to 1000 nM. The EC50 was 501 to 1000 nM in experiment [1] and over 1000 nM in experiment [2].

At MAPKAPK5, `CNCc1cc(Nc2ncc(-c3ccc4c(c3)CNC4=O)n3ncnc23)ccc1N1CCOCC1` [Compound 179] came in with an IC50 of 101 to 500 nM. Moreover, the EC50 in experiment [1] and in experiment [2] was over 1000 nM each time.

`CC(C)N1CCN(c2ccc(Nc3ncc(-c4ccc5c(c4)CNC5=O)n4ncnc34)cc2C(F)(F)F)CC1` [Compound 170, 5-{8-[4-(4-Isopropylpiperazin-1-yl)-3-trifluoromethylphenylamino]-[1,2,4]triazolo[1,5-a]pyrazin-5-yl}-2,3-dihydroisoindol-1-one] registered an IC50 on MAPKAPK5 of 101 to 500 nM. The EC50 in experiment [1] and in experiment [2] was over 1000 nM in each case.

`c1nc2c(Nc3ccc(N4CCN(CC5CC5)CC4)cc3)ncc(-c3cn[nH]c3)n2n1` [Compound 46, {4-[4-(Cyclopropylmethyl)piperazin-1-yl]phenyl}-[5-(1H-pyrazol-4-yl)-[1,2,4]triazolo[1,5-a]pyrazin-8-yl]amine] returned an IC50 against MAPKAPK5 of over 1000 nM. Moreover, the 50% effective concentration (EC50) in experiment [1] and in experiment [2] was over 1000 nM in each case.

Take `O=C1NCc2cc(-c3cnc(Nc4ccc(N5CCOCC5)cc4Cl)c4ncnn34)ccc21` [Compound 76]: the IC50 on MAPKAPK5 was over 1000 nM. Besides, the EC50 in experiment [1] was over 1000 nM; in experiment [2] it was 501 to 1000 nM.

For the compound `CC(C)(C)N1CCN(c2ccc(Nc3ncc(-c4cn[nH]c4)n4ncnc34)cc2)CC1` [Compound 103], the IC50 against MAPKAPK5 is 501 to 1000 nM. Also, the EC50 in experiment [1] fell in the range of 101 to 500 nM; in experiment [2], 501 to 1000 nM.

For the compound `O=C1NCc2cc(-c3cnc(Nc4ccc(N5CCNCC5=O)cc4)c4ncnn34)ccc21` [Compound 105, 5-{8-[4-(2-Oxo-piperazin-1-yl)-phenylamino]-[1,2,4]triazolo[1,5-a]pyrazin-5-yl}-2,3-dihydro-isoindol-1-one], the concentration for half-maximal inhibition (IC50) against MAPKAPK5 lay in the range of 1 to 100 nM. The EC50 in experiment [1] and in experiment [2] was over 1000 nM each time.

For the compound `c1nc2c(Nc3ccc(N4CCOCC4)nc3)ncc(-c3cn[nH]c3)n2n1` [Compound 41, (6-[Morpholin-4-yl]pyridin-3-yl)-[5-(1H-pyrazol-4-yl)-[1,2,4]triazolo[1,5-a]pyrazin-8-yl]amine], the half-maximal inhibitory concentration (IC50) against MAPKAPK5 is over 1000 nM. Moreover, the EC50 in experiment [1] and in experiment [2] was over 1000 nM each time.

Take `NC(=O)c1cc(Nc2ncc(-c3cn[nH]c3)n3ncnc23)ccc1N1CCOCC1` [Compound 19, 5-(5-(1H-Pyrazol-4-yl)-[1,2,4]triazolo[1,5-a]pyrazin-8-ylamino)-2-morpholinobenzamide]: the IC50 at MAPKAPK5 was over 1000 nM. Further, the concentration for a half-maximal effect (EC50) in experiment [1] and in experiment [2] was over 1000 nM throughout.

On MAPKAPK5, `C[C@@H]1CN(c2ccc(Nc3ncc(-c4csc(C(N)=O)c4)n4ncnc34)cc2)[C@@H](C)CN1C` [Compound 32] displayed an IC50 of 101 to 500 nM. The EC50 in experiment [1] and in experiment [2] was 501 to 1000 nM throughout.

`OCc1n[nH]cc1-c1cnc(Nc2ccc(N3CCOCC3)cc2)c2ncnn12` [Compound 70, (4-(8-(4-Morpholinophenylamino)-[1,2,4]triazolo[1,5-a]pyrazin-5-yl)-1H-pyrazol-5-yl)methanol] returned an IC50 against MAPKAPK5 of over 1000 nM. Besides, the EC50 in experiment [1] and in experiment [2] was over 1000 nM in each case.

`NC(=O)c1ccc(-c2cnc(Nc3ccc(N4CCOCC4)cc3)c3ncnn23)c(F)c1` [Compound 10]: on MAPKAPK5, the IC50 is over 1000 nM. In addition, the concentration for a half-maximal effect (EC50) in experiment [1] was over 1000 nM; in experiment [2], 501 to 1000 nM.

In the case of `O=C1NCc2cc(-c3cnc(Nc4ccc(N5CCOCC5)cc4F)c4ncnn34)ccc21` [Compound 75], the concentration for half-maximal inhibition (IC50) against MAPKAPK5 is over 1000 nM. Also, the EC50 in experiment [1] and in experiment [2] was over 1000 nM each time.

For the compound `NC(=O)c1cc(-c2cnc(Nc3ccc(N4CCOCC4)cc3)c3ncnn23)co1` [Compound 34, 4-(8-(4-Morpholinophenylamino)-[1,2,4]triazolo[1,5-a]pyrazin-5-yl)furan-2-carboxamide], the IC50 on MAPKAPK5 was in the range of 101 to 500 nM. Further, the results for the EC50 in experiment [1] and in experiment [2] were over 1000 nM and 1 to 100 nM, respectively.

`CN1CCN(c2ccc(Nc3ncc(-c4ccc(C(N)=O)s4)n4ncnc34)cc2)CC1` [Compound 9, 5-{8-[4-(4-Methyl-piperazin-1-yl)-phenylamino]-[1,2,4]triazolo[1,5-a]pyrazin-5-yl}-thiophene-2-carboxylic acid amide] yielded an IC50 against MAPKAPK5 of 501 to 1000 nM. Also, the half-maximal effective concentration (EC50) lay within 101 to 500 nM in experiment [1] and 501 to 1000 nM in experiment [2].

Regarding `CCc1[nH]ncc1-c1cnc(Nc2ccc(N3CCOCC3)cc2)c2ncnn12` [Compound 52, 5-(5-Ethyl-1H-pyrazol-4-yl)-N-(4-morpholinophenyl)-[1,2,4]triazolo[1,5-a]pyrazin-8-amine], at MAPKAPK5, the 50% inhibitory concentration (IC50) is over 1000 nM. The EC50 in experiment [1] and in experiment [2] was over 1000 nM throughout.

On MAPKAPK5, `NC(=O)c1ccc(-c2cnc(Nc3ccc(N4CCOCC4)cc3)c3ncnn23)cc1F` [Compound 11] came in with an IC50 of over 1000 nM. Also, the EC50 in experiment [1] was over 1000 nM; in experiment [2], 101 to 500 nM.

`c1nc2c(Nc3ccc(OCCN4CCOCC4)cc3)ncc(-c3cn[nH]c3)n2n1` [Compound 20] displayed a 50% inhibitory concentration (IC50) against MAPKAPK5 of over 1000 nM. Besides, the EC50 in experiment [1] and in experiment [2] was over 1000 nM each time.

In turn, `NC(=O)CN1CCC(c2ccc(Nc3ncc(-c4cn[nH]c4)n4ncnc34)cc2)CC1` [Compound 169, 2-(4-{4-[5-(1H-Pyrazol-4-yl)-[1,2,4]triazolo[1,5-a]pyrazin-8-ylamino]phenyl}-piperidin-1-yl)acetamide] gave a 50% inhibitory concentration (IC50) on MAPKAPK5 of 501 to 1000 nM. Moreover, the EC50 in experiment [1] and in experiment [2] was over 1000 nM each time.

In the case of `NC(=O)c1cc(-c2cnc(Nc3ccc(OCCN4CCOCC4)cc3)c3ncnn23)cs1` [Compound 21, 4-(8-(4-(2-Morpholinoethoxy)phenylamino)-[1,2,4]triazolo[1,5-a]pyrazin-5-yl)thiophene-2-carboxamide], at MAPKAPK5, the half-inhibitory concentration (IC50) was 101 to 500 nM. Besides, the EC50 was over 1000 nM in experiment [1] and 101 to 500 nM in experiment [2].

As for `CC(C)N1CCN(c2ccc(Nc3ncc(-c4cn[nH]c4)n4ncnc34)cc2C(F)(F)F)CC1` [Compound 171, [4-(4-Isopropylpiperazin-1-yl)-3-trifluoromethylphenyl]-[5-(1H-pyrazol-4-yl)-[1,2,4]triazolo[1,5-a]pyrazin-8-yl]amine], the IC50 against MAPKAPK5 was over 1000 nM. Moreover, the results for the EC50 in experiment [1] and in experiment [2] were 501 to 1000 nM and over 1000 nM, respectively.

In turn, `CC(C)N1CCN(c2ccc(Nc3ncc(-c4cc(C(N)=O)co4)n4ncnc34)cc2)CC1` [Compound 30] yielded a half-maximal inhibitory concentration (IC50) at MAPKAPK5 of over 1000 nM. Further, the EC50 in experiment [1] and in experiment [2] was over 1000 nM in each case.

For the origin of these results see patent publication US20100298300A1, “TRIAZOLOPYRAZINE COMPOUNDS USEFUL FOR THE TREATMENT OF DEGENERATIVE & INFLAMMATORY DISEASES” (priority 2006, published 2010).
